In publication PMC5773577, “Novel Miniature Membrane Active Lipopeptidomimetics against Planktonic and Biofilm Embedded Methicillin-Resistant Staphylococcus aureus” (Scientific Reports, 2018):

What was measured:
Format in all cases: cell-based, Staphylococcus aureus
MRSA ATCC 33591 [1] = experiment: Cell viability corresponding to membrane depolarization experiment; conditions: dye-loaded cells in HEPES-glucose buffer, 4 × MIC, 2 min incubation
Procedure: Briefly, exponential phase cells grown in MHB were harvested by centrifugation, washed and re-suspended in respiration buffer (5 mM HEPES, 20 mM glucose, pH 7.2) to 2.5 × 10^6 CFU/mL. […] The dye-loaded cells (800 μL) were then treated with peptidomimetics at respective 1× and 4× MIC concentrations (2–20 μL) and consequent fluorescence increase after 2 min of addition was measured in a Shimadzu RF-5301 PC spectrofluorimeter. As controls IL, melittin and VAN were also assayed under identical conditions. […] The viability of dye-loaded cells corresponding to depolarization experiment at 4 × MIC concentration was also measured by plating the diluted aliquots onto BHI agar plates.
Cell viability corresponding to membrane depolarization experiment.
dye-loaded cells suspended in HEPES-glucose buffer (5 mM, 20 mM glucose, pH 7.2)
were incubated with different test agents for 2 min and subsequently diluted
appropriately and plated on BHI agar plates. The plates were incubated at 37 °C for 16-
18 h and colonies were counted. The experiment was repeated on two different days
and mean ± S.D. is presented here.

MRSA ATCC 33591 [2] = experiment: Cell viability corresponding to calcein leakage experiment; conditions: calcein-loaded cells in PBS, 4 × MIC (melittin 10 μM), 2 h incubation
Procedure: To assess the effect of designed peptidomimetics on membrane integrity of MRSA ATCC 33591 strain a calcein-AM dye release experiment was performed using the protocol described previously with slight modifications[51]. Briefly, exponential phase MRSA ATCC 33591 culture was prepared in MHB medium as mentioned earlier and adjusted to OD600 = 1 (~10^9 CFU/mL) in PBS (10 mM sodium phosphate, 150 mM NaCl, pH 7.4). Thereafter, the cells were incubated at 37 °C with calcein-AM (2 μg/mL) in 10% MHB medium for 2 h. The calcein-loaded cells were washed once and re-suspended in PBS to OD600 = 0.5 (~10^8 CFU/mL). The cells were diluted 100× in PBS to get 3–5 × 10^5 CFU/mL and were incubated with different concentrations of test agents at 37 °C in dark for 2 h. Subsequently, calcein fluorescence was measured via flow cytometry (Becton Dickinson (BD) FACS verse, San Jose, CA) with excitation and emission wavelengths of 488 nm and 530 ± 30 nm, respectively. For each sample, 10,000 cells were acquired. As a positive control, melittin (10 μM) was assayed under identical conditions. The experiment was repeated on two different days and mean ± S.D. is presented here. […]
agar plates. The plates were incubated at 37 °C for 16-18 h and colonies were counted. […]

[3] = system: exponential phase MRSA ATCC 33591; experiment: Bacterial killing kinetics, exponential phase cells in MHB medium; conditions: 24 h
Procedure: (§1) The kinetics of bacterial killing was determined against MRSA ATCC 33591 strain using drop plate method as described previously with slight modifications[51],[67],[70],[71]. The experiment was performed against exponential phase MRSA in normal medium and stationary phase MRSA in nutrient-depleted medium. For the preparation of nutrient-depleted medium, the primary MRSA ATCC 33591 culture in MHB medium was allowed to grow for 18 h at 37 °C and the cells were removed by centrifugation. The cell pellet was used for stationary phase culture and the spent medium supernatant was used as a nutrient-depleted medium. For obtaining exponential phase cells, MRSA was grown overnight in MHB and 100 μL suspension was used to inoculate 10 mL fresh MHB medium. The cells were incubated at 37 °C for 4–6 h to reach exponential phase.
(§2) For the experiments, both exponential and stationary phase cells were re-suspended separately in normal or nutrient-depleted mediums to OD600 = 0.5 (~10^8 CFU/mL). A 25 µL aliquot of this suspension was added to 475 μL of respective medium with or without test peptidomimetics/antibiotics in an eppendorf tube. […] The agar plates were incubated at 37 °C for 16–18 h and the colonies were counted (dilutions having colonies in the range of 10–100 were counted). […]

[4] = system: stationary phase MRSA ATCC 33591; experiment: Bacterial killing kinetics, stationary phase cells in nutrient-depleted MHB medium; conditions: 24 h
Procedure: as §1, §2

MRSA ATCC 33591 biofilm = experiment: Biofilm formation inhibition, viable count assay; conditions: 24 h biofilm formation inhibition, 2.5 μg/mL
Procedure: For the experiment, a protocol as described previously was used with slight modifications. Briefly, desired concentrations of the test agents in PBS were added to the wells of a 96-well plate (100 μL). Thereafter, overnight grown stationary phase MRSA ATCC 33591 culture (~4 × 10^5 CFU/mL) in TSB medium (supplemented with 0.25% glucose and 0.5% NaCl) was added to the 96-well plates (100 μL). The plates were incubated at 37 °C without shaking for 24 h. After 24 h, the used medium was discarded and the biofilms formed were washed with PBS once. Subsequently, CV and AB assays were performed to quantify biomass and viability respectively, as described below:
The experiments were repeated on two different days and on each day 6 wells were used for a single treatment. Mean ± S.E. for both CV assay and AB assay is presented here. Corresponding to CV and AB assay the viability of cells upon treatment was also evaluated. Towards this 200 μL PBS was added to washed and treated wells of the 96-well plate and the contents were scraped thoroughly. The resulting bacterial suspension was sonicated briefly, diluted in PBS and plated on BHI agar plates. The agar plates were incubated at 37 °C for 16–24 h and CFUs were counted. Mean ± S.E. data from two independent experiments performed on two different days is shown here.

[5] = system: 48 h mature MRSA ATCC 33591 biofilms; experiment: 48 h mature biofilm, confocal laser scanning microscopy (Live/Dead); conditions: 24 h treatment at 20 × MIC (S-7 226 μg/mL, S-8 28 μg/mL, VAN 28 μg/mL), untreated 22 μm
Procedure: For the experiment, a protocol as described previously was used with slight modifications[24],[72]. Briefly, stationary phase MRSA ATCC 33591 culture ~10^5 CFU/mL in TSB medium (supplemented with 0.25% glucose and 0.5% NaCl) was added to the well of an 8-well chamber slide (200 μL). The slide was incubated at 37 °C without shaking for 24 h. After 24 h, the medium was discarded and the biofilm was washed with PBS once (10 mM sodium phosphate, 150 mM NaCl, pH 7.3). […] After 48 h (24 h + 24 h), the planktonic cells were removed and the biofilms were washed with PBS once. To the wells, 200 μL of PBS containing BacLight Live/Dead viability stain [SYTO9 (green fluorescence) and propidium iodide (PI) (red fluorescence) in equal volume] was added and the chamber slides were incubated at room temperature for 15 min in dark. After 15 min, the stain was removed and biofilms were washed with PBS once. To fix the biofilms, 200 μL of neutral buffered formalin (10% in PBS) was added to each well and the slides were kept at room temperature in dark for 30 min. After fixation, the biofilms were washed once, the chamber was removed and a cover slip was placed over the slide. The biofilms were viewed with an Olympus FluoView^TM FV1000 confocal laser scanning microscope (2D and z-stacking). […] For each sample, the biofilms thickness was also determined using z-scanning confocal microscopy. […]

[6] = system: 48 h mature MRSA ATCC 33591 biofilms; experiment: Cell viability of 48 h mature biofilm embedded cells; conditions: 24 h treatment at 20 × MIC, mean ± S.D., two experiments, untreated 9.31 ± 0.11
Procedure: For enumeration of cells after 48 h incubation, the medium was aspirated and the biofilms were washed with PBS once. Then 200 μL PBS was added to each well of the chamber slide and the chambers were thoroughly scraped with a pipette tip. The bacterial suspension obtained was plated on BHI agar after dilution in PBS as described above. The resulting CFU/mL from two different days were counted and plotted as mean ± S.D.

## CN[C@H](CC(C)C)C(=O)N[C@H]1C(=O)N[C@@H](CC(N)=O)C(=O)N[C@H]2C(=O)N[C@H]3C(=O)N[C@H](C(=O)N[C@H](C(=O)O)c4cc(O)cc(O)c4-c4cc3ccc4O)[C@H](O)c3ccc(c(Cl)c3)Oc3cc2cc(c3O[C@@H]2O[C@H](CO)[C@@H](O)[C@H](O)[C@H]2O[C@H]2C[C@](C)(N)[C@H](O)[C@H](C)O2)Oc2ccc(cc2Cl)[C@H]1O [VAN, vancomycin]
MRSA ATCC 33591 [1]
  log reduction in viability relative to untreated control: 0.6 log
MRSA ATCC 33591 [2]
  log reduction in viability: no reduction
[3]; 4 × MIC
  log reduction in CFU/mL: ~ 2.3 log
[3]; 10 × MIC
  log reduction in CFU/mL: ~ 2.3 log
[4]; 4 × MIC
  log reduction in CFU/mL: ~ 1.1 log
[4]; 10 × MIC
  log reduction in CFU/mL: ~ 1.1 log
MRSA ATCC 33591 biofilm
  log reduction in viability compared to 24 h growth control: > 3 log
MRSA ATCC 33591 biofilm; mean ± S.E., two experiments, untreated 7.59 ± 0.08
  remaining viable count: 1.44 ± 1.44 log CFU/mL
[5]
  biofilm thickness: 14 μm
[6]
  number of surviving cells: 9.08 ± 0.11 log CFU/mL
